Experimental data reported in US20060035846A1, “Preventing/correcting functional disorders of the pilosebaceous unit of mammals” (L'OREAL, priority 2002, published 2006).

System: costo-vertebral organ (CVO) of the hamster
Experiment: CVO test: inhibition of the "testosterone effect" by food supplements
Format: in vivo
Details: daily topical application of testosterone to the right CVO from day 50; control animals without food supplement; FIG. 1
Excerpt: 1-A: Principle of the CVO Test:
The CVO of the hamster is a cutaneous region rich in pilosebaceous units.
The CVO test consists of determining the anti-androgenic action of different compounds on the CVO, i.e., of determining whether said compounds prevent the action of testosterone (Liao S et al., Arch Dermatol Res, 293(4), 200-206 (2001)).
Consequently, this figure illustrates the “testosterone effect”.
As from the fiftieth day (dotted arrow), testosterone was applied daily to the right CVO.
The following products were used in the context of the in vivo CVO test such as defined above. These products were tested as food supplements, alone or in combination. • (a) the natural aroma of red wine rich in resveratrol (stilbenes) and proanthocyanidines (flavonoids) in the proportion of 0.11 g in 43 g of food (18% of polyphenols); • (b) a soja extract containing 40% of isoflavonoids, in a proportion of 0.02 g of extract in 44 g of food (40% of isoflavones); • (c) black currant pip oil rich in γ-linolenic acid (polyunsaturated fatty acid 18:3 n-6) in a proportion of 10% by weight in the foodstuff; • (d) the combination of the above three products.

Compound: C[C@]12CC[C@H]3[C@@H](CCC4=CC(=O)CC[C@@]43C)[C@@H]1CC[C@@H]2O [testosterone]
- size of the right CVO compared with that of the left CVO ("testosterone effect"): increase in the size
